Laboratory results: patent US20210130417A1, “SYSTEMS AND METHODS FOR DESIGNING SYNTHETIC ANTIMICROBIAL PEPTIDES” (University of Notre Dame du Lac, priority 2017, published 2021)
Values after ≈ are worked out from the molar mass of the structure shown. Residues, ends and D or L forms follow the SMILES beside them.

Columns and labels:
[1] = test system: sheep red blood cells (RBCs); conditions: compared to the PBS control
Protocol: For hemolysis assays, 100 μL of sheep red blood cells (RBCs) were washed three times in cold PBS (Thermo Fischer). Washed cells were resuspended in 25 mL of PBS. Triton, PBS, or peptide in 10% DMSO/PBS were added to 180 μL of resuspended RBCs and incubated at 37° C. for 1 h. Samples were read at 450 nm. Data was expressed as percent hemolysis by relativizing to the Triton and PBS controls.

[2] = test system: Streptococcus pyogenes M1T1
Source text: (§1) E. coli BL-21 frozen stock culture was purchased from Thermo Fischer. Pseudomonas aeruginosa PAO1 frozen stock culture was obtained from the Shrout Laboratory at the University of Notre Dame. Pseudomonas syringae frozen stock culture was obtained from the Innes Laboratory at Indiana University. Xanthomonas axonopodis pathovar Starr and Garces pathovar phaseoli (ATCC 9563) frozen stock culture was purchased from the ATCC. Streptococcus pyogenes M1T1 frozen stock culture was obtained from the lab of Dr. Victor Nizet, University of California San Diego. A methicillin resistant Staphylococcus aureus JKD frozen stock culture was obtained from the lab of Dr. Timothy Stinear, University of Melbourne.
(§2) The E. coli, P. aeruginosa, and P. syringae bacterial strains were routinely grown in LB broth (EMD Chemicals, Gibbstown, N.J.). S. aureus and S. pyogenes were routinely grown in Todd Hewitt broth (Neogen Corporation, Lansing, Mich.). X. axonopodis was routinely grown in Nutrient Broth (Sigma-Aldrich Co., St. Louis, Mo.). P. syringae and X. axonopodis were grown at room temperature without agitation. All other bacteria were grown at 37° C. with agitation.
(§3) Overnight bacterial cultures were diluted to an OD of 0.01. […] and 10 μL of 10× peptide or vehicle were added to the wells of a 96-well microtiter plate for a final 1× concentration. Bacteria were grown in desired growth conditions in a Synergy H1 Microplate Reader (Biotek, Winooski, Vt.). For MIC, serial two-fold dilutions of the peptides were used. MIC was determined as the concentration of peptide that prevented overnight growth as indicated by OD 600. For peptide screening, 8 μM or 4 μM peptide was screened against various bacteria. Peptides that inhibited overnight growth were selected for further study.

[3] = test system: Pseudomonas aeruginosa PAO1
Source text: as §1, §2, §3

E. coli BL-21 = format: cell-based, Escherichia coli
Protocol: The E. coli, P. aeruginosa, and P. syringae bacterial strains were routinely grown in LB broth (EMD Chemicals, Gibbstown, N.J.). […] All other bacteria were grown at 37° C. with agitation.
Overnight bacterial cultures were diluted to an OD of 0.01. μL of diluted culture and 10 μL of 10× peptide or vehicle were added to the wells of a 96-well microtiter plate for a final 1× concentration. Bacteria were grown in desired growth conditions in a Synergy H1 Microplate Reader (Biotek, Winooski, Vt.). For MIC, serial two-fold dilutions of the peptides were used. MIC was determined as the concentration of peptide that prevented overnight growth as indicated by OD 600.

Row | Compound | hemolysis of library peptides [1] | MIC S. pyogenes [2] [µM] | MIC P. aeruginosa [3] [µM] | MIC E. coli (E. coli BL-21) [µM]
1 | CC[C@H](C)[C@H](NC(=O)[C@H](CCCCN)NC(=O)[C@H](CC(N)=O)NC(=O)[C@H](CCCCN)NC(=O)[C@H](CC(C)C)NC(=O)[C@H](Cc1ccc(O)cc1)NC(=O)[C@H](CCC(N)=O)NC(=O)[C@H](CCCNC(=N)N)NC(=O)[C@@H](NC(=O)[C@@H](NC(=O)[C@H](CCCCN)NC(=O)[C@H](CCCCN)NC(=O)[C@H](Cc1c[nH]c2ccccc12)NC(=O)[C@H](C)N)[C@@H](C)O)[C@@H](C)CC)C(=O)N[C@@H](CCCCN)C(=O)N[C@@H](CCCCN)C(=O)N[C@@H](CCCCN)C(=O)NCC(=O)N[C@@H](CCCNC(=N)N)C(=O)N[C@@H](CCCCN)C(=O)N[C@@H](C)C(=O)N[C@H](C(=O)N[C@H](C(=O)N[C@@H](C)C(=O)N[C@@H](Cc1c[nH]c2ccccc12)C(=O)O)[C@@H](C)CC)C(C)C [Peptide 20] (H-AWKKTIRQYLKNKIKKKGRKAVIAW-OH) | no significant changes in hemolysis | 8 | 10 | 8 (≈ 24.5 µg/mL)
2 | CC[C@H](C)[C@H](NC(=O)[C@H](CCCCN)NC(=O)[C@H](CC(N)=O)NC(=O)[C@H](CCCCN)NC(=O)[C@H](CC(C)C)NC(=O)[C@H](Cc1ccc(O)cc1)NC(=O)[C@H](CCC(N)=O)NC(=O)[C@H](CCCNC(=N)N)NC(=O)[C@@H](NC(=O)[C@@H](NC(=O)[C@H](CCCCN)NC(=O)[C@H](CCCCN)NC(=O)CNC(=O)[C@H](C)N)[C@@H](C)O)[C@@H](C)CC)C(=O)N[C@@H](CCCCN)C(=O)N[C@@H](CCCCN)C(=O)N[C@@H](CCCCN)C(=O)N[C@@H](Cc1c[nH]c2ccccc12)C(=O)N[C@@H](CCCNC(=N)N)C(=O)N[C@@H](CCCCN)C(=O)N[C@@H](C)C(=O)N[C@H](C(=O)N[C@H](C(=O)N[C@@H](C)C(=O)N[C@@H](Cc1c[nH]c2ccccc12)C(=O)O)[C@@H](C)CC)C(C)C [Peptide 52] (H-AGKKTIRQYLKNKIKKKWRKAVIAW-OH) | low levels of hemolysis at higher concentrations | 8 | 10 | 8 (≈ 24.5 µg/mL)
3 | CC[C@H](C)[C@H](NC(=O)[C@H](CCCCN)NC(=O)[C@H](CC(N)=O)NC(=O)[C@H](CCCCN)NC(=O)[C@H](CC(C)C)NC(=O)[C@H](Cc1ccc(O)cc1)NC(=O)[C@H](CCC(N)=O)NC(=O)[C@H](CCCNC(=N)N)NC(=O)[C@@H](NC(=O)[C@@H](NC(=O)[C@H](CCCCN)NC(=O)[C@H](CCCCN)NC(=O)CNC(=O)[C@H](C)N)[C@@H](C)O)[C@@H](C)CC)C(=O)N[C@@H](CCCCN)C(=O)N[C@@H](CCCCN)C(=O)N[C@@H](CCCCN)C(=O)NCC(=O)N[C@@H](CCCNC(=N)N)C(=O)N[C@@H](CCCCN)C(=O)N[C@@H](Cc1c[nH]c2ccccc12)C(=O)N[C@H](C(=O)N[C@H](C(=O)N[C@@H](C)C(=O)N[C@@H](Cc1c[nH]c2ccccc12)C(=O)O)[C@@H](C)CC)C(C)C [Peptide 60] (H-AGKKTIRQYLKNKIKKKGRKWVIAW-OH) | no significant changes in hemolysis |  |  | 
4 | CC[C@H](C)[C@H](NC(=O)[C@H](CCC(=O)O)NC(=O)[C@H](CC(N)=O)NC(=O)[C@H](CCCCN)NC(=O)[C@H](CC(C)C)NC(=O)[C@H](Cc1ccc(O)cc1)NC(=O)[C@H](CCC(N)=O)NC(=O)[C@H](CCCNC(=N)N)NC(=O)[C@@H](NC(=O)[C@@H](NC(=O)[C@H](CCCCN)NC(=O)[C@H](CCCCN)NC(=O)[C@H](Cc1c[nH]c2ccccc12)NC(=O)[C@H](C)N)[C@@H](C)O)[C@@H](C)CC)C(=O)N[C@@H](CCCCN)C(=O)N[C@@H](CCCCN)C(=O)N[C@@H](CCCCN)C(=O)N[C@@H](Cc1c[nH]c2ccccc12)C(=O)N[C@@H](CCCNC(=N)N)C(=O)N[C@@H](CCCCN)C(=O)N[C@@H](C)C(=O)N[C@H](C(=O)N[C@H](C(=O)N[C@@H](C)C(=O)N[C@@H](Cc1c[nH]c2ccccc12)C(=O)O)[C@@H](C)CC)C(C)C [Peptide 90] (H-AWKKTIRQYLKNEIKKKWRKAVIAW-OH) | low levels of hemolysis at higher concentrations | 8 |  | 2 (≈ 6.37 µg/mL)
5 | CC[C@H](C)[C@H](NC(=O)[C@H](CCCCN)NC(=O)[C@H](CC(N)=O)NC(=O)[C@H](CCCCN)NC(=O)[C@H](CC(C)C)NC(=O)[C@H](Cc1ccc(O)cc1)NC(=O)[C@H](CCC(N)=O)NC(=O)[C@H](CCCNC(=N)N)NC(=O)[C@@H](NC(=O)[C@@H](NC(=O)[C@H](CCC(=O)O)NC(=O)[C@H](CCCCN)NC(=O)[C@H](Cc1c[nH]c2ccccc12)NC(=O)[C@H](C)N)[C@@H](C)O)[C@@H](C)CC)C(=O)N[C@@H](CCCCN)C(=O)N[C@@H](CCCCN)C(=O)N[C@@H](CCCCN)C(=O)N[C@@H](Cc1c[nH]c2ccccc12)C(=O)N[C@@H](CCCNC(=N)N)C(=O)N[C@@H](CCCCN)C(=O)N[C@@H](C)C(=O)N[C@H](C(=O)N[C@H](C(=O)N[C@@H](C)C(=O)N[C@@H](Cc1c[nH]c2ccccc12)C(=O)O)[C@@H](C)CC)C(C)C [Peptide 91] (H-AWKETIRQYLKNKIKKKWRKAVIAW-OH) | low levels of hemolysis at higher concentrations | 10 |  | 2 (≈ 6.37 µg/mL)
6 | CC[C@H](C)[C@H](NC(=O)[C@H](CCCCN)NC(=O)[C@H](CC(N)=O)NC(=O)[C@H](CCCCN)NC(=O)[C@H](CC(C)C)NC(=O)[C@H](Cc1ccc(O)cc1)NC(=O)[C@H](CCC(N)=O)NC(=O)[C@H](CCCNC(=N)N)NC(=O)[C@@H](NC(=O)[C@@H](NC(=O)[C@H](CCCCN)NC(=O)[C@H](CCCCN)NC(=O)[C@H](Cc1c[nH]c2ccccc12)NC(=O)[C@H](C)N)[C@@H](C)O)[C@@H](C)CC)C(=O)N[C@@H](CCCCN)C(=O)N[C@@H](CCCCN)C(=O)N[C@@H](CCCCN)C(=O)N[C@@H](Cc1c[nH]c2ccccc12)C(=O)N[C@@H](CCCNC(=N)N)C(=O)N[C@@H](CCCCN)C(=O)N[C@@H](C)C(=O)N[C@H](C(=O)N[C@H](C(=O)N[C@@H](C)C(=O)N[C@@H](Cc1c[nH]c2ccccc12)C(=O)O)[C@@H](C)CC)C(C)C [Peptide 92] (H-AWKKTIRQYLKNKIKKKWRKAVIAW-OH) | no significant changes in hemolysis | 8 |  | 4 (≈ 12.7 µg/mL)
7 | CC[C@H](C)[C@H](NC(=O)[C@H](CCCCN)NC(=O)[C@H](CCC(=O)O)NC(=O)[C@H](CCCCN)NC(=O)[C@H](Cc1c[nH]c2ccccc12)NC(=O)[C@H](C)N)C(=O)N[C@@H](CCCNC(=N)N)C(=O)N[C@@H](CCC(N)=O)C(=O)N[C@@H](Cc1ccc(O)cc1)C(=O)N[C@@H](CC(C)C)C(=O)N[C@@H](CCCCN)C(=O)N[C@@H](CC(N)=O)C(=O)N[C@@H](CCC(=O)O)C(=O)N[C@H](C(=O)N[C@@H](CCCCN)C(=O)N[C@@H](CCCCN)C(=O)N[C@@H](CCCCN)C(=O)N[C@@H](Cc1c[nH]c2ccccc12)C(=O)N[C@@H](CCCNC(=N)N)C(=O)N[C@@H](CCCCN)C(=O)N[C@@H](C)C(=O)N[C@H](C(=O)N[C@H](C(=O)N[C@@H](C)C(=O)N[C@@H](Cc1c[nH]c2ccccc12)C(=O)O)[C@@H](C)CC)C(C)C)[C@@H](C)CC [Peptide 93] (H-AWKEKIRQYLKNEIKKKWRKAVIAW-OH) | low levels of hemolysis at higher concentrations | 8 |  | 1 (≈ 3.21 µg/mL)
8 | CC[C@H](C)[C@H](NC(=O)[C@H](CCC(=O)O)NC(=O)[C@H](CC(N)=O)NC(=O)[C@H](CCCCN)NC(=O)[C@H](CC(C)C)NC(=O)[C@H](Cc1ccc(O)cc1)NC(=O)[C@H](CCCCN)NC(=O)[C@H](CCCNC(=N)N)NC(=O)[C@@H](NC(=O)[C@@H](NC(=O)[C@H](CCC(=O)O)NC(=O)[C@H](CCCCN)NC(=O)[C@H](Cc1c[nH]c2ccccc12)NC(=O)[C@H](C)N)[C@@H](C)O)[C@@H](C)CC)C(=O)N[C@@H](CCCCN)C(=O)N[C@@H](CCCCN)C(=O)N[C@@H](CCCCN)C(=O)N[C@@H](Cc1c[nH]c2ccccc12)C(=O)N[C@@H](CCCNC(=N)N)C(=O)N[C@@H](CCCCN)C(=O)N[C@@H](C)C(=O)N[C@H](C(=O)N[C@H](C(=O)N[C@@H](C)C(=O)N[C@@H](Cc1c[nH]c2ccccc12)C(=O)O)[C@@H](C)CC)C(C)C [Peptide 94] (H-AWKETIRKYLKNEIKKKWRKAVIAW-OH) | low levels of hemolysis at higher concentrations | 10 | 8 | 2 (≈ 6.38 µg/mL)
9 | CC[C@H](C)[C@H](NC(=O)[C@H](CCCCN)NC(=O)[C@H](CCC(=O)O)NC(=O)[C@H](CCCCN)NC(=O)[C@H](Cc1c[nH]c2ccccc12)NC(=O)[C@H](C)N)C(=O)N[C@@H](CCCNC(=N)N)C(=O)N[C@@H](CCCCN)C(=O)N[C@@H](CCCCN)C(=O)N[C@@H](CC(C)C)C(=O)N[C@@H](CCCCN)C(=O)N[C@@H](CC(N)=O)C(=O)N[C@@H](CCC(=O)O)C(=O)N[C@H](C(=O)N[C@@H](CCCCN)C(=O)N[C@@H](CCCCN)C(=O)N[C@@H](CCCCN)C(=O)N[C@@H](Cc1c[nH]c2ccccc12)C(=O)N[C@@H](CCCNC(=N)N)C(=O)N[C@@H](CCCCN)C(=O)N[C@@H](C)C(=O)N[C@H](C(=O)N[C@H](C(=O)N[C@@H](C)C(=O)N[C@@H](Cc1c[nH]c2ccccc12)C(=O)O)[C@@H](C)CC)C(C)C)[C@@H](C)CC [Peptide 96] (H-AWKEKIRKKLKNEIKKKWRKAVIAW-OH) | no significant changes in hemolysis | 8 | 8 | 2 (≈ 6.36 µg/mL)
